Measured values: patent publication US4788136A, “Diagnostic immunoassay by solid phase separation for digoxin” (priority 1987, dated 1988)

Columns and labels:
[1] = system: anti-digoxin antibodies; test: TDx Abbott Digoxin II assay, antigenicity (cross-reactivity) of cardiac glycoside analogs; format: binding; details: TDx analyzer, aqueous solutions in TDx dilution buffer, observed assay concentration divided by actual analog concentration times 100
Procedure: (§1) The antigencity of cardiac glycoside analogs was first determined using the TDx@ analyzer and the Abbott Digoxin II assay commercially available from Abbott Laboratories, Abbott Park, Il 60064. Analogs were evaluated as aqueous solutions in TDx dilution buffer. Several analogs were also subsequently evaluated using the new digoxin assay described herein (see generally Example IV) using a ouabain triacetate solid phase prepared in accordance with Example IIB. Analogs evaluated were: [drawing 3] wherein R1 =R2 =R3 =Ac, X=O, Y1, Z1 and Y2, Z2 =a bond connecting the two carbon atoms to which they are attached (A); R1 =R2 =R3 =Ac, X=O, Y1 =OH, Z1 =H, Y2 and Z2 =a bond connecting the two carbon atoms to which they are attached (B); R1 =R2 =R3 =Ac, X=O, Y1 =Y2 =OH, Z1 =Z2 =H (C); and R1 =R2 =R3 =H, X=N, Y1 =Y2 =OH, Z1 =Z2 =H (D). Cross-reactivity was defined as the observed assay concentration divided by the actual analog concentration times 100.

[2] = system: β-galactosidase-labeled F(ab')2 (anti-digoxin); test: New digoxin assay (ouabain triacetate solid phase), cross-reactivity of analogs; format: binding, Rabbit; details: new digoxin assay using ouabain triacetate solid phase; observed assay concentration divided by actual analog concentration times 100
Procedure: as §1

[3] = system: anti-digoxin antibodies; details: known compounds for immobilization (background); cited from earlier work
[4] = system: β-galactosidase-labeled F(ab')2; test: Non-competitive assay for digoxin in serum with immobilized ouabain triacetate solid phase (standard curve)
Procedure: The general assay format consists of preincubation of excess β-galactosidase-labeled F(ab')2 (Example II A) with sample such that sample is quantitatively and rapidly bound to form an analyte-β-galactosidase-labeled F(ab')2 conjugate. An aliquot of this mixture is transferred to a vessel containing a ouabain triacetate-albumin-trisacryl solid phase prepared in accordance with procedure of Example II B and having a characteristic density to be easily suspended in solution yet sufficiently dense to rapidly sediment by gravity. The solid phase material rapidly captures the excess unconjugated β-galactosidase-labeled F(ab')2 and sediments. Following the capture reaction and sedimentation an aliguot containing analyte-β-galactosidase-labeled F(ab')2 is transfered to a cuvette for quantitation using a fluorogenic substrate.
Serum solutions containing 0, 0.5, 1.0, 2.0, 3.0 and 5.0 nanograms per milliliter of digoxin were each tested following the same assay protocol described below. A control was also run with zero digoxin and no solid phase material. Fifty microliters of serum sample was mixed with 25 microliters of the β-galactosidase-labeled F(ab')2 (Example II A) and 325 microliters of TDx dilution buffer. The reaction mixture was incubated at 34-35 degrees Celsius for 6 minutes and then a 60 microliter aliquot and 55 microliters of TDx dilution buffer was added to 10 mg of solid phase material (Example II B). The mixture was incubated for 10 minutes with mixing. 400 ul of TDx dilution buffer was then added to the mixture.
The mixture was allowed to rest briefly whereupon it separated into a liquid and solid phase. The β-galactosidase activity of the supernatant was measured by quantitating the production of fluorescein. The measurement was made using 10 micromolar di-(β-D-galactosyl)-fluorescein as substrate in TDx dilution buffer containing 1 mM MgCl2.

SMILES | CROSS-REACTIVITY (%) DIGOXIN II [1] | CROSS-REACTIVITY (%) NEW ASSAY [2] | other results
CC1OC(OC2C(O)CC(OC3C(O)CC(OC4CCC5(C)C(CCC6C5CC(O)C5(C)C(C7=CC(=O)NC7)CCC65O)C4)OC3C)OC2C)CC(O)C1O (centres unmarked) [Digoxin Lactam] | 0.41% | – | –
C[C@H]1O[C@@H](O[C@H]2[C@@H](O)C[C@H](O[C@H]3[C@@H](O)C[C@H](O[C@H]4CC[C@@]5(C)[C@H](CC[C@@H]6[C@@H]5C[C@@H](O)[C@]5(C)[C@@H](C7=CC(=O)OC7)CC[C@]65O)C4)O[C@@H]3C)O[C@@H]2C)C[C@H](O)[C@@H]1O [Digoxin] | 100% | 100% | affinity for labeled anti digoxin antibody, in words [3]: relatively high affinity; Fluorescence Measured Rate ([4]; digoxin 0.5 ng/mL in serum): 160; Fluorescence Measured Rate ([4]; digoxin 1.0 ng/mL in serum): 220; Fluorescence Measured Rate ([4]; digoxin 2.0 ng/mL in serum): 448; Fluorescence Measured Rate ([4]; digoxin 3.0 ng/mL in serum): 745; Fluorescence Measured Rate ([4]; digoxin 5.0 ng/mL in serum): 1231
CC1OC(OC2CC(O)C3(CO)C4C(O)CC5(C)C(C6=CC(=O)NC6)CCC5(O)C4CCC3(O)C2)C(O)C(O)C1O (centres unmarked) [Ouabain Lactam (D)] | 9.1 × 10^-4% | – | –
CC(=O)OCC12C(=CCC3C4=CCC(C5=CC(=O)OC5)C4(C)CC(OC(C)=O)C31)CC(OC1OC(C)C(O)C(O)C1O)CC2OC(C)=O (centres unmarked) [Ouabain Triacetate (A)] | 1.6 × 10^-3% | – | –
CC(=O)OCC12C(OC(C)=O)CC(OC3OC(C)C(O)C(O)C3O)CC1(O)CCC1C3=CCC(C4=CC(=O)OC4)C3(C)CC(OC(C)=O)C12 (centres unmarked) [Ouabain Triacetate (B)] | 1.5 × 10^-3% | – | –
CC(=O)OCC12C(OC(C)=O)CC(OC3OC(C)C(O)C(O)C3O)CC1(O)CCC1C2C(OC(C)=O)CC2(C)C(C3=CC(=O)OC3)CCC12O (centres unmarked) [Ouabain Triacetate (C)] | 3.7 × 10^-4% | 2.2 × 10^-4% | –
C[C@@H]1O[C@@H](O[C@H]2C[C@@H](O)[C@]3(CO)[C@H]4[C@H](O)C[C@]5(C)[C@@H](C6=CC(=O)OC6)CC[C@]5(O)[C@@H]4CC[C@]3(O)C2)[C@H](O)[C@H](O)[C@H]1O [Ouabain] | 2.0 × 10^-2% | 1.8 × 10^-3% | affinity for labeled anti digoxin antibody, in words [3]: relatively high affinity
